Measurements reported in ChEMBL document CHEMBL4425184, “C15-methoxyphenylated 18-deoxy-herbimycin A analogues, their in vitro anticancer activity and heat shock protein 90 binding affinity” (Bioorg Med Chem Lett, 2016).

What was measured:
[1] = target: T1, Heat shock protein HSP 90-alpha (Homo sapiens, UniProt P07900); test: Displacement of fluorescent labelled-VER00051001 from N-terminal ATP-binding site of human recombinant HSP90A expressed in Escherichia coli measured after 44 hrs by fluorescence polarization assay
[2] = target: T1, Heat shock protein HSP 90-alpha; test: Displacement of fluorescent labelled-VER00051001 from N-terminal ATP-binding site of human recombinant HSP90A expressed in Escherichia coli measured after 29 hrs by fluorescence polarization assay
BGC-823 = test: Antiproliferative activity against human BGC823 assessed as reduction in cell viability measured after 96 hrs by MTT assay; format: functional, cell-based; conditions: BGC-823, 96 h
HCT-116 = test: Antiproliferative activity against human HCT116 assessed as reduction in cell viability measured after 96 hrs by MTT assay; format: functional, cell-based; conditions: HCT-116, 96 h
[3] = target: T1, Heat shock protein HSP 90-alpha; test: Displacement of fluorescent labelled-VER00051001 from N-terminal ATP-binding site of human recombinant HSP90A expressed in Escherichia coli measured after 20 hrs by fluorescence polarization assay
MCF7 = test: Antiproliferative activity against human MCF7 assessed as reduction in cell viability measured after 96 hrs by MTT assay; format: functional, cell-based; conditions: MCF7, 96 h
SW1990 = test: Antiproliferative activity against human SW1990 assessed as reduction in cell viability measured after 96 hrs by MTT assay; format: functional, cell-based; conditions: SW1990, 96 h
[4] = target: T1, Heat shock protein HSP 90-alpha; test: Displacement of fluorescent labelled-VER00051001 from N-terminal ATP-binding site of human recombinant HSP90A expressed in Escherichia coli measured after 32 hrs by fluorescence polarization assay
[5] = target: T1, Heat shock protein HSP 90-alpha; test: Displacement of fluorescent labelled-VER00051001 from N-terminal ATP-binding site of human recombinant HSP90A expressed in Escherichia coli measured after 48 hrs by fluorescence polarization assay
A-375 = test: Antiproliferative activity against human A375 assessed as reduction in cell viability measured after 96 hrs by MTT assay; format: functional, cell-based; conditions: A-375, 96 h
A2780 = test: Antiproliferative activity against human A2780 assessed as reduction in cell viability measured after 96 hrs by MTT assay; format: functional, cell-based; conditions: A2780, 96 h

| Structure (SMILES) | IC50 [1] [nM] | IC50 [2] [nM] | IC50 (BGC-823) [µM] | IC50 (HCT-116) [µM] | IC50 [3] [nM] | IC50 (MCF7) [µM] | IC50 (SW1990) [µM] | IC50 [4] [nM] | IC50 [5] [nM] | IC50 (A-375) [nM] | IC50 (A2780) [nM] |
| --- | --- | --- | --- | --- | --- | --- | --- | --- | --- | --- | --- |
| COc1ccc([C@H]2c3cccc(c3O)NC(=O)/C(C)=C/C=C\[C@H](OC)[C@@H](OC(N)=O)/C(C)=C/[C@H](C)[C@@H](OC)[C@@H](OC)C[C@@H]2C)cc1 | 98.5 | 102 | 6.47 | 6.34 | 119 | 9.58 | 3.37 | 101 | 97.1 | 2560 | 2380 |
| COc1ccc([C@H]2c3cccc(c3O)NC(=O)/C(C)=C/C=C\[C@H](OC)[C@@H](OC(N)=O)/C(C)=C/[C@H](C)[C@@H](O)[C@@H](OC)C[C@@H]2C)cc1 | 56.7 | 59.4 | 0.63 | 0.44 | 64.5 | 0.45 | 0.8 | 55.8 | 53 | 450 | 470 |
| CO[C@H]1/C=C\C=C(/C)C(=O)NC2=CC(=O)C=C(C2=O)[C@H](OC)[C@@H](C)C[C@H](OC)[C@H](O)[C@@H](C)/C=C(\C)[C@@H]1OC(N)=O [HERBIMYCIN C] | 18.1 | 19.7 | 3.99 | 9.39 | 22.2 | 5.07 | 8.62 | 18.4 | 16.8 | 2430 | 3010 |
| COc1ccc([C@H]2c3cccc(c3O)NC(=O)/C(C)=C/CC[C@H](OC)[C@@H](OC(N)=O)/C(C)=C/[C@H](C)[C@@H](O)[C@@H](OC)C[C@@H]2C)cc1 | > 1000 | > 1000 | > 20 | > 20 | > 1000 | > 20 | > 20 | > 1000 | > 1000 | > 20000 | > 20000 |
| COc1ccc([C@H]2c3cccc(c3O)NC(=O)/C(C)=C/CC[C@H](OC)[C@@H](OC(N)=O)/C(C)=C/[C@H](C)[C@@H](OC)[C@@H](OC)C[C@@H]2C)cc1 | > 1000 | > 1000 | > 20 | > 20 | > 1000 | > 20 | > 20 | > 1000 | > 1000 | > 20000 | > 20000 |
